Patent publication US10385070B2, “Chroman-spirocyclic piperidine amides as modulators of ion channels” (VERTEX PHARMACEUTICALS INCORPORATED, priority 2011, dated 2019)

Biological target: human NaV subtype, like NaV 1.7 (Homo sapiens, UniProt Q15858)
Assay: E-VIPR optical membrane potential assay with electrical stimulation
Assay type: cell-based
Conditions: active against one or more sodium channels; assay and NaV subtype not specified for Table 3; read-out: IC50 Binned Activity Data
From the text: Assays for Detecting and Measuring NaV Inhibition Properties of Compound E-VIPR Optical Membrane Potential Assay Method with Electrical Stimulation
Sodium channels are voltage-dependent proteins that can be activated by inducing membrane voltage changes by applying electric fields. The electrical stimulation instrument and methods of use are described in Ion Channel Assay Methods PCT/US01/21652, herein incorporated by reference and are referred to as E-VIPR. The instrument comprises a microtiter plate handler, an optical system for exciting the coumarin dye while simultaneously recording the coumarin and oxonol emissions, a waveform generator, a current- or voltage-controlled amplifier, and a device for inserting electrodes in well. Under integrated computer control, this instrument passes user-programmed electrical stimulus protocols to cells within the wells of the microtiter plate.
24 hours before the assay on E-VIPR, HEK cells expressing human NaV subtype, like NaV 1.7, are seeded in 384-well poly-lysine coated plates at 15,000-20,000 cells per well. Other subtypes are performed in an analogous mode in a cell line expressing the NaV of interest. HEK cells are grown in media (exact composition is specific to each cell type and NaV subtype) supplemented with 10% FBS (Fetal Bovine Serum, qualified; GibcoBRL #16140-071) and 1% Pen-Strep (Penicillin-Streptomycin; GibcoBRL #15140-122). Cells are grown in vented cap flasks, in 90% humidity and 10% CO2, to 100% confluence. They are usually split by trypsinization 1:10 or 1:20, depending on scheduling needs, and grown for 2-3 days before the next split.
100 mg/mL Pluronic F-127 (Sigma #P2443), in dry DMSO
Compound Plates: 384-well round bottom plate, e.g. Corning 384-well Polypropylene Round Bottom #3656
Cell Plates: 384-well tissue culture treated plate, e.g. Greiner #781091-1B
Bath1 buffer. Glucose 10 mM (1.8 g/L), Magnesium Chloride (Anhydrous), 1 mM (0.095 g/L), Calcium Chloride, 2 mM (0.222 g/L), HEPES 10 mM (2.38 g/L), Potassium Chloride, 4.5 mM (0.335 g/L), Sodium Chloride 160 mM (9.35 g/L).
Hexyl Dye Solution: Bath1 Buffer+0.5% β-cyclodextrin (make this prior to use, Sigma #C4767), 8 μM CC2-DMPE+2.5 μM DiSBAC6(3). To make the solution Add volume of 10% Pluronic F127 stock equal to volumes of CC2-DMPE+DiSBAC6(3). The order of preparation is first mix Pluronic and CC2-DMPE, then add DiSBAC6(3) while vortexing, then add Bath1+β-Cyclodextrin.
1) Pre-spot compounds (in neat DMSO) into compound plates. Vehicle control (neat DMSO), the positive control (20 mM DMSO stock tetracaine, 125 μM final in assay) and test compounds are added to each well at 160× desired final concentration in neat DMSO. Final compound plate volume will be 80 μL (80-fold intermediate dilution from 1 μL DMSO spot; 160-fold final dilution after transfer to cell plate). Final DMSO concentration for all wells in assay is 0.625%.
2) Prepare Hexyl Dye Solution.
3) Prepare cell plates. On the day of the assay, medium is aspirated and cells are washed three times with 100 μL of Bath1 Solution, maintaining 25 μL residual volume in each well.
4) Dispense 25 μL per well of Hexyl Dye Solution into cell plates. Incubate for 20-35 minutes at room temp or ambient conditions.
5) Dispense 80 μL per well of Bath1 into compound plates. Acid Yellow-17 (1 mM) is added and Potassium Chloride can be altered from 4.5 to 20 mM depending on the NaV subtype and assay sensitivity.
6) Wash cell plates three times with 100 μL per well of Bath1, leaving 25 μL of residual volume. Then transfer 25 uL per well from Compound Plates to Cell Plates. Incubate for 20-35 minutes at room temp/ambient condition
7) Read Plate on E-VIPR. Use the current-controlled amplifier to deliver stimulation wave pulses for typically 9 seconds and a scan rate of 400 Hz. A pre-stimulus recording is performed for 0.5 seconds to obtain the un-stimulated intensities baseline. […]

Sequence of human NaV subtype, like NaV 1.7 (Q15858 whole entry): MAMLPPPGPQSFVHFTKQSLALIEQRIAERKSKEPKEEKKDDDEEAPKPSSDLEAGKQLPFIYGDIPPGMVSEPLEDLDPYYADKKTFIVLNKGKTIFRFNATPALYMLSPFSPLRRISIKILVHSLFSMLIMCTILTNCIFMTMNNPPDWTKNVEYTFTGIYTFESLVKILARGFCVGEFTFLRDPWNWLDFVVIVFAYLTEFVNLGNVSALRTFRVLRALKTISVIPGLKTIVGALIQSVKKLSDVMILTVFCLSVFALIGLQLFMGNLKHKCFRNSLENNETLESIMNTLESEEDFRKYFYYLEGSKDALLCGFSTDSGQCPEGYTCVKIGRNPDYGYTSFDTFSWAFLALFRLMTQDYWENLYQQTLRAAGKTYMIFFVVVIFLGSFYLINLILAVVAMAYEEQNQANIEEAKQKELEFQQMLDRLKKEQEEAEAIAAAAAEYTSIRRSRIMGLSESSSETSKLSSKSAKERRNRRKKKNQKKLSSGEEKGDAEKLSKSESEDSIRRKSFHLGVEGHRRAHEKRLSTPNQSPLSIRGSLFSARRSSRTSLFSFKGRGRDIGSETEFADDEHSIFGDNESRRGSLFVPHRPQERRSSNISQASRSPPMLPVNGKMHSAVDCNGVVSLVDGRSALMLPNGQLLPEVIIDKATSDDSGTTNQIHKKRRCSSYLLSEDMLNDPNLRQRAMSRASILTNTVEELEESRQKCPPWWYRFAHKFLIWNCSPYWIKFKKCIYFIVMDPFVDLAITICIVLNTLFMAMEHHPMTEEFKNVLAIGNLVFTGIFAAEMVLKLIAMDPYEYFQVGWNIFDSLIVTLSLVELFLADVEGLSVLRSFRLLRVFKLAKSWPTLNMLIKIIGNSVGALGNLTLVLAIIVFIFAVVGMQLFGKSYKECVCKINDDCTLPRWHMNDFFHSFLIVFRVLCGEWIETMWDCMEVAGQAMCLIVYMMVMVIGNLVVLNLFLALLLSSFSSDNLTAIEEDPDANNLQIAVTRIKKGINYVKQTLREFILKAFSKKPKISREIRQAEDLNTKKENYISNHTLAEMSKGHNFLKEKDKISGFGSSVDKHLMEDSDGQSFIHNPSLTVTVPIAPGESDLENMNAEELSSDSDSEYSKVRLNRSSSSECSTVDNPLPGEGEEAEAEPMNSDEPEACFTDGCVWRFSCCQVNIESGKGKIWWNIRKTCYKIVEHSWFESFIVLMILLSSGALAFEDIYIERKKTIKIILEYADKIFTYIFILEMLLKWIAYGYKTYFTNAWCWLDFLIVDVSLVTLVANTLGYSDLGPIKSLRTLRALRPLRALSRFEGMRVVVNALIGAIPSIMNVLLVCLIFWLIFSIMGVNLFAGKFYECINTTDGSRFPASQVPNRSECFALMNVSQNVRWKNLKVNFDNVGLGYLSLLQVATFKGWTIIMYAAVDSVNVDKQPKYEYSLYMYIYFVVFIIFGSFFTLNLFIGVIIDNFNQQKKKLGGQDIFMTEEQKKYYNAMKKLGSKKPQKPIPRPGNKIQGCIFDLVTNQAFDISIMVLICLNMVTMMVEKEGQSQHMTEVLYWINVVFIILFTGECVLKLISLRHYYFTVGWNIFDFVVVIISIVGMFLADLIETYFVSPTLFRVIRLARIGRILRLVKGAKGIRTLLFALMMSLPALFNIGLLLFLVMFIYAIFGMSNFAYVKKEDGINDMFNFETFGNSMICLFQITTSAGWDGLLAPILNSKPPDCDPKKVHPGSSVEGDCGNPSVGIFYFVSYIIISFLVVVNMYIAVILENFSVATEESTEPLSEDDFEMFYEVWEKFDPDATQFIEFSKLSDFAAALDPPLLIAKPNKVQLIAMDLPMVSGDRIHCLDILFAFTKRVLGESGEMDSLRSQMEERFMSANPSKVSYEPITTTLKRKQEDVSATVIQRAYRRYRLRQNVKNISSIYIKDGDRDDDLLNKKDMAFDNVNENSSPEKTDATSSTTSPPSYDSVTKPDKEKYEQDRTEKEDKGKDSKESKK

| SMILES | IC50 [nM] |
| --- | --- |
| CCS(=O)(=O)c1ccc(C(=O)N2CCC3(CC2)C[C@@H](OC(C)C)c2cc(F)cc(F)c2O3)cc1C [Compound 4] | 2000 to 5000 |
| CC(C)Oc1ccc(C(=O)N2CCC3(CC2)C[C@@H](OC(C)C)c2cc(F)ccc2O3)cc1CN [Compound 8] | > 5000 |
| CNCc1cc(C(=O)N2CCC3(CC2)C[C@@H](OC(C)C)c2cc(F)ccc2O3)ccc1OC(C)C [Compound 15] | > 5000 |
| CC(C)O[C@@H]1CC2(CCN(C(=O)c3ccc4[nH]ncc4c3)CC2)Oc2ccccc21 [Compound 28] | 2000 to 5000 |
| CC(C)OC1CC2(CCN(C(=O)c3ccc(S(=O)(=O)CC4CC4)cn3)CC2)Oc2ccc(F)cc21 (centres unmarked) [Compound 30] | 2000 to 5000 |
| CCO[C@@H]1CC2(CCN(C(=O)c3ccc(S(=O)(=O)C(C)C)cc3)CC2)Oc2ccc(F)cc21 [Compound 32] | 2000 to 5000 |
| CCN(CC)CCOC1CC2(CCN(C(=O)c3ccc(OC(C)C)c(OC)c3)CC2)Oc2ccccc21 (centres unmarked) [Compound 38] | > 5000 |
| CC(C)S(=O)(=O)c1ccc(C(=O)N2CCC3(CCc4ccccc4O3)CC2)cc1 [Compound 39] | > 5000 |
| COc1ccccc1C(=O)N1CCC2(CC1)CC(C(C)C)c1ccccc1O2 (centres unmarked) [Compound 40] | > 5000 |
| Cc1cc(C(=O)N2CCC3(CC2)CC(OC(C)C)c2cc(C#N)ccc2O3)ccc1C(C)(C)O (centres unmarked) [Compound 43] | ≤ 2000 |
| COCOC1=Cc2ccccc2OC12CCN(C(=O)c1ccc(OC(C)C)c(OC)c1)CC2 [Compound 44] | ≤ 2000 |
| Cc1cc(C(=O)N2CCC3(CC2)CC(OC(C)C)c2cccnc2O3)ccc1OC(C)C (centres unmarked) [Compound 45] | ≤ 2000 |
| CC(C)Nc1ccc(C(=O)N2CCC3(CC2)C[C@@H](OC(C)C)c2cc(F)ccc2O3)nc1 [Compound 46] | ≤ 2000 |
| COc1cc(C(=O)N2CCC3(CC2)CC(NC(C)C)c2ccccc2O3)ccc1OC(C)C (centres unmarked) [Compound 47] | > 5000 |
| CC(C)O[C@@H]1CC2(CCN(C(=O)c3ccc(C(C)(C)O)c(F)c3)CC2)Oc2ccc(F)cc21 [Compound 48] | ≤ 2000 |
| CC(C)O[C@@H]1CC2(CCN(C(=O)c3ccc(C4(O)CCCC4)cc3)CC2)Oc2ccc(F)cc21 [Compound 49] | ≤ 2000 |
| CCc1ccc(C(=O)N2CCC3(CC2)C[C@@H](OC(C)C)c2ccccc2O3)cc1OC [Compound 50] | ≤ 2000 |
| COc1cc(C(=O)N2CCC3(CC2)Oc2ccccc2CC3OC(C)C)ccc1OC(C)C (centres unmarked) [Compound 51] | ≤ 2000 |
| CC(C)O[C@@H]1CC2(CCN(C(=O)c3ccc(N4CCOCC4)cn3)CC2)Oc2ccc(F)cc21 [Compound 52] | ≤ 2000 |
| CC(C)O[C@@H]1CC2(CCN(C(=O)c3ccc(SC(C)C)cc3)CC2)Oc2ccc(F)cc21 [Compound 53] | ≤ 2000 |
| CC(C)O[C@@H]1CC2(CCN(C(=O)c3ccc(N4CCCCC4C)cn3)CC2)Oc2ccc(F)cc21 (some centres unmarked) [Compound 54] | ≤ 2000 |

The remaining lines, values ahead:

| IC50 [nM] | SMILES |
| --- | --- |
| ≤ 2000 | CC(C)O[C@@H]1CC2(CCN(C(=O)c3ccc(NC4(C)COC4)cn3)CC2)Oc2ccc(F)cc21 [Compound 1] |
| ≤ 2000 | COc1cc(C(=O)N2CCC3(CC2)CC(COC(C)C)c2ccccc2O3)ccc1OC(C)C (centres unmarked) [Compound 2] |
| ≤ 2000 | COc1cc(C(=O)N2CCC3(CC2)CC(Oc2cncc(C#N)c2)c2ccccc2O3)ccc1OC(C)C (centres unmarked) [Compound 3] |
| ≤ 2000 | CCO[C@@H]1CC2(CCN(C(=O)c3ccc(S(=O)(=O)CC(C)C)cc3)CC2)Oc2ccc(F)cc21 [Compound 5] |
| ≤ 2000 | COc1cc(C(=O)N2CCC3(CC2)CC(C(C)OC)c2ccccc2O3)ccc1OC(C)C (centres unmarked) [Compound 6] |
| ≤ 2000 | CC(C)O[C@@H]1CC2(CCN(C(=O)c3ccc(S(=O)(=O)C(F)(F)F)cc3)CC2)Oc2ccc(F)cc21 [Compound 7] |
| ≤ 2000 | CCS(=O)(=O)c1ccc(C(=O)N2CCC3(CC2)C[C@@H](OC(C)C)c2cc(F)ccc2O3)cc1C [Compound 9] |
| ≤ 2000 | COc1cc(C(=O)N2CCC3(CC2)C[C@@H](OC(C)C)c2cc(F)ccc2O3)ccc1C(C)(C)O [Compound 10] |
| ≤ 2000 | Cc1cc(S(=O)(=O)C(C)C)ccc1C(=O)N1CCC2(CC1)C[C@@H](OC(C)C)c1cc(F)ccc1O2 [Compound 11] |
| ≤ 2000 | CCOC1CC2(CCN(C(=O)c3ccc(OC(C)C)c(OC)c3)CC2)Oc2ccccc21 (centres unmarked) [Compound 12] |
| ≤ 2000 | Cc1cc(C(=O)N2CCC3(CC2)C[C@@H](OC(C)C)c2cc(F)ccc2O3)ccc1S(=O)(=O)C(C)C [Compound 13] |
| ≤ 2000 | CC(C)O[C@@H]1CC2(CCN(C(=O)c3cccc4cccnc34)CC2)Oc2ccccc21 [Compound 14] |
| ≤ 2000 | CC(C)O[C@@H]1CC2(CCN(C(=O)c3ccc(N(C)C(C)C)cn3)CC2)Oc2ccc(F)cc21 [Compound 16] |
| ≤ 2000 | CC(C)O[C@@H]1CC2(CCN(C(=O)c3ccc(N4CCN(S(C)(=O)=O)CC4)cn3)CC2)Oc2ccc(F)cc21 [Compound 17] |
| ≤ 2000 | COc1ccc(C(=O)N2CCC3(CC2)CC(c2ccccc2)c2ccccc2O3)cc1OC (centres unmarked) [Compound 18] |
| ≤ 2000 | CC(C)O[C@@H]1CC2(CCN(C(=O)c3ccc(NS(=O)(=O)C(C)C)cc3)CC2)Oc2ccc(F)cc21 [Compound 19] |

| IC50 [nM] | SMILES |
| --- | --- |
| ≤ 2000 | COc1ccc(C(=O)N2CCC3(CC2)C[C@@H](OC(C)C)c2ccccc2O3)cc1C [Compound 20] |
| ≤ 2000 | C=CCOC1CC2(CCN(C(=O)c3ccc(OC(C)C)c(OC)c3)CC2)Oc2ccccc21 (centres unmarked) [Compound 21] |
| ≤ 2000 | CC(C)O[C@@H]1CC2(CCN(C(=O)c3ccc(S(=O)(=O)C(C)C)c(C#N)c3)CC2)Oc2ccc(F)cc21 [Compound 22] |
| ≤ 2000 | COc1cc(C(=O)N2CCC3(CC2)CC(COCC(F)F)c2ccccc2O3)ccc1OC(C)C (centres unmarked) [Compound 23] |
| ≤ 2000 | CCOC1CC2(CCN(C(=O)c3ccc(OC(C)C)c(OC)c3)CC2)S(=O)(=O)c2ccccc21 (centres unmarked) [Compound 24] |
| ≤ 2000 | COc1cc(C(=O)N2CCC3(CC2)CC(OC(C)C)c2ccc(F)cc2O3)ccc1OC(C)C (centres unmarked) [Compound 25] |
| ≤ 2000 | Cc1cc(C(=O)N2CCC3(CC2)C[C@H](OC(C)C)c2ccccc2O3)ccc1C(C)(C)O [Compound 26] |
| ≤ 2000 | Cc1cc(C(=O)N2CCC3(CC2)C[C@@H](OC(C)C)c2cc(F)cc(F)c2O3)ccc1S(=O)(=O)C(C)C [Compound 27] |
| ≤ 2000 | CC(C)OC1CC2(CCN(C(=O)c3ccc(S(=O)(=O)C(C)C)c(C#N)c3)CC2)Oc2ccc(F)cc21 (centres unmarked) [Compound 29] |
| ≤ 2000 | CC(C)O[C@@H]1CC2(CCN(C(=O)c3ccc(C(C)(C)O)c(F)c3)CC2)Oc2ccccc21 [Compound 31] |
| ≤ 2000 | COc1cc(C(=O)N2CCC3(CC2)CC(OC(C)C)c2nn(C(C)(C)C)cc2O3)ccc1OC(C)C (centres unmarked) [Compound 34] |
| ≤ 2000 | CC(C)OCC1CC2(CCN(C(=O)c3ccc(C(C)(C)O)cc3)CC2)Oc2ccccc21 (centres unmarked) [Compound 35] |
| ≤ 2000 | Cc1cc(C(=O)N2CCC3(CC2)C[C@@H](OC(C)C)c2ccccc2O3)ccc1O [Compound 36] |
| ≤ 2000 | Cc1cc(C(=O)N2CCC3(CC2)CC(OC(C)C)c2ccncc2O3)ccc1OC(C)C (centres unmarked) [Compound 37] |
| ≤ 2000 | COC1CCN(c2ccc(C(=O)N3CCC4(CC3)C[C@@H](OC(C)C)c3cc(F)ccc3O4)nc2)CC1 [Compound 41] |
| ≤ 2000 | CC(C)Oc1ccc(C(=O)N2CCC3(CC2)C[C@H](OC(C)C)c2ccccc2O3)cc1CO [Compound 42] |
